{"source": "patent US20260250270A1", "about": "“Compound Used as Kinase Inhibitor and Use Thereof” (TYK MEDICINES, INC., priority 2022, published 2026)", "assay_type_in_all_cases": "physicochemical", "key": {"[1]": {"assay": "Dynamic water vapor adsorption (DVS) test"}, "[2]": {"assay": "Solubility test by visual inspection in 18 solvents", "conditions": "room temperature", "description": "The solubility of the free base crystalline form I of the compound of Example 1 was crudely determined by visual inspection in 18 solvents at room temperature. The free base crystalline form I was only highly soluble in dichloroethane and dichloromethane and poorly soluble in most of the solvents tested."}, "[3]": {"assay": "Tablet pressing experiment", "conditions": "pressure 30 MPa"}, "[4]": {"assay": "Grinding experiment"}, "[5]": {"assay": "Competitive pulping of anhydrous crystalline forms I and V", "conditions": "saturated acetone and acetonitrile solutions, 25° C. or 50° C."}, "[6]": {"assay": "Stability experiment (left open, XRPD and liquid chromatography)", "conditions": "left open at 80° C. 3 days, 60° C. 7 days, 25° C./60% RH 7 days, 40° C./75% RH 7 days, 25° C./90±5% RH 7 days", "procedure": "In the stability experiment, when the free base crystalline form I was left open at 80° C. for 3 days, 60° C. for 7 days, 25° C./60% RH for 7 days, 40° C./75% RH for 7 days, and 25° C./90±5% RH for 7 days, the samples were taken for XRPD detection, respectively."}}}
{"smiles": "C=CC(=O)Nc1cc(Nc2ncc(C(=O)OC(C)C)c(-c3cn(C)c4ccccc34)n2)c(OC)cc1N(C)[C@@H]1[C@@H]2CN(C)C[C@@H]21", "note": "[free base crystalline form I]", "values": [{"measurement": "hygroscopicity", "setting": "[1]", "result": "slightly hygroscopic"}, {"measurement": "weight gain by water absorption", "setting": "[1]; at 80% RH", "result": 0.66, "unit": "%"}, {"measurement": "solubility", "setting": "[2]; organic solvent or mixture, thermodynamic from solid, 1,4-dioxane", "result": "< 270", "unit": "µg/mL"}, {"measurement": "solubility", "setting": "[2]; organic solvent or mixture, thermodynamic from solid, Acetone", "result": "2220 to 4440", "unit": "µg/mL"}, {"measurement": "solubility", "setting": "[2]; organic solvent or mixture, thermodynamic from solid, Acetonitrile", "result": "930 to 1010", "unit": "µg/mL"}, {"measurement": "solubility", "setting": "[2]; organic solvent or mixture, thermodynamic from solid, Butanone", "result": "2780 to 4440", "unit": "µg/mL"}, {"measurement": "solubility", "setting": "[2]; organic solvent or mixture, thermodynamic from solid, Cyclohexane", "result": "< 330", "unit": "µg/mL"}, {"measurement": "solubility", "setting": "[2]; organic solvent or mixture, thermodynamic from solid, Dichloroethane", "result": "61800 to 124000", "unit": "µg/mL"}, {"measurement": "solubility", "setting": "[2]; organic solvent or mixture, thermodynamic from solid, Dichloromethane", "result": "> 107000", "unit": "µg/mL"}, {"measurement": "solubility", "setting": "[2]; organic solvent or mixture, thermodynamic from solid, Dimethylsulfoxide", "result": "2600 to 2930", "unit": "µg/mL"}, {"measurement": "solubility", "setting": "[2]; organic solvent or mixture, thermodynamic from solid, Ethanol", "result": "< 300", "unit": "µg/mL"}, {"measurement": "solubility", "setting": "[2]; organic solvent or mixture, thermodynamic from solid, Ethyl acetate", "result": "< 290", "unit": "µg/mL"}, {"measurement": "solubility", "setting": "[2]; organic solvent or mixture, thermodynamic from solid, Isopropanol", "result": "< 350", "unit": "µg/mL"}, {"measurement": "solubility", "setting": "[2]; organic solvent or mixture, thermodynamic from solid, Isopropyl acetate", "result": "< 300", "unit": "µg/mL"}, {"measurement": "solubility", "setting": "[2]; organic solvent or mixture, thermodynamic from solid, Methanol", "result": "< 400", "unit": "µg/mL"}, {"measurement": "solubility", "setting": "[2]; organic solvent or mixture, thermodynamic from solid, N-Methyl pyrrolidone", "result": "18200 to 27400", "unit": "µg/mL"}, {"measurement": "solubility", "setting": "[2]; organic solvent or mixture, thermodynamic from solid, Tert-butyl methyl ether", "result": "< 330", "unit": "µg/mL"}, {"measurement": "solubility", "setting": "[2]; organic solvent or mixture, thermodynamic from solid, Tetrahydrofuran", "result": "2550 to 3190", "unit": "µg/mL"}, {"measurement": "solubility", "setting": "[2]; organic solvent or mixture, thermodynamic from solid, n-Heptane", "result": "< 300", "unit": "µg/mL"}, {"measurement": "solubility", "setting": "[2]; thermodynamic from solid, Water", "result": "< 270", "unit": "µg/mL"}, {"measurement": "crystallinity after tablet pressing", "setting": "[3]", "result": "crystallinity slightly decreased"}, {"measurement": "solid form after dry grinding", "setting": "[4]; 5 min of dry grinding", "result": "transformed into amorphous state"}, {"measurement": "crystallinity after wet grinding with ethanol", "setting": "[4]; 5 min of wet grinding with ethanol", "result": "slight decrease in crystallinity"}, {"measurement": "crystallinity after wet grinding with water", "setting": "[4]; 5 min of wet grinding with water", "result": "no significant change in crystallinity"}, {"measurement": "thermodynamic stability versus free base crystalline form V", "setting": "[5]", "result": "thermodynamically stable crystalline form"}, {"measurement": "stability, change in liquid chromatography results", "setting": "[6]", "result": "no change"}, {"measurement": "stability, change of crystalline form by XRPD", "setting": "[6]", "result": "no significant change"}]}
